For one data set, the system named is HSC-T6. The experiment in a line: Inhibition of NF-kappaB (unknown origin) expressed in TNFalpha-stimulated rat HSC-T6 cells assessed as reduction of HSC activation at 10 ug/ml treated 30 mins before TNFalpha stimulation measured after 6 hrs by bioluminescence based luciferase reporter gene assay relative to control. The data set is classed as cell-based. As to conditions: Homo sapiens.
Usually inhibition stands for the change of the read-out against control, counted positive when it falls. As to SILYMARIN, the inhibition worked out at 51.4%.

The subject of the next data set is HSC-T6. The experiment in a line: Inhibition of NF-kappaB (unknown origin) expressed in TNFalpha-stimulated rat HSC-T6 cells assessed as reduction of HSC activation at 50 ug/ml treated 30 mins before TNFalpha stimulation measured after 6 hrs by bioluminescence based luciferase reporter gene assay relative to control. The data set is classed as cell-based.
Details: not given
`COc1cc2c(c(O)c1OC)-c1c(cc(OC)c(OC)c1OC)C[C@@H](C)[C@@H](C)C2`: the inhibition was 69%.

With `C/C=C(\C)C(=O)O[C@H]1c2cc(OC)c(OC)c(OC)c2-c2c(cc(O)c(OC)c2OC)C[C@H](C)[C@]1(C)O`, the inhibition was determined as 43.2%.

For the compound `COc1cc2c(c(OC)c1OC)-c1c(cc(O)c(OC)c1OC)C[C@H](C)[C@H](C)[C@@H]2O`, the inhibition came out at 49.2%.

Turning to `COc1c2c(cc3c1-c1c(cc4c(c1OC)OCO4)[C@H](OC(=O)c1ccccc1)[C@@](C)(O)[C@@H](C)C3)OCO2`, the inhibition worked out at 71.8%.

In the case of `COc1cc2c(c(OC)c1OC)-c1c(cc(O)c(OC)c1OC)C[C@H](C)[C@](C)(O)[C@@H]2OC(=O)c1ccccc1`, the inhibition is 27.9%.

With `C/C=C(/C)C(=O)O[C@H]1c2cc3c(c(OC)c2-c2c(cc4c(c2OC)OCO4)C[C@H](C)[C@]1(C)O)OCO3`, the inhibition is 34.8%.

`COc1cc2c(c(OC)c1OC)-c1c3cc4c(c1O[C@](C)([C@H](C)CO)C(=O)O[C@@H]2[C@@H](C)[C@@H](C)C3)OCO4`: the inhibition is 4.87%.

With `C/C=C(/C)C(=O)O[C@H]1c2cc(OC)c(OC)c(OC)c2-c2c(cc3c(c2OC)OCO3)C[C@H](C)[C@@]1(C)O`, the inhibition amounted to 6.64%.

Regarding `COc1cc([C@@H]2c3cc(OC)c(O)cc3C(=O)[C@@H](C)[C@H]2C)ccc1O`, the inhibition is 46.4%.

Tested on in another data set: not listed separately
The experiment in a line: Cytotoxicity against rat HSC-T6 cells. The data set is classed as cell-based.
Details: not given
On to `COc1cc2c(c(OC)c1OC)-c1c(cc3c(c1OC)OCO3)C[C@H](C)[C@](C)(O)[C@H]2OC(=O)c1ccccc1` [GOMISIN C], for which the Activity result was “Toxic”.

Consider `COc1cc(C[C@@H](C)[C@@H](C)Cc2cc(O)c(OC)c(OC)c2)cc(O)c1OC` [PREGOMISIN], for which the Activity entry is recorded as “Toxic”.

Values taken from ChEMBL document CHEMBL2311327, “Anti-liver fibrotic lignans from the fruits of Schisandra arisanensis and Schisandra sphenanthera” (Bioorg Med Chem Lett, 2013).
